Experimental data reported in patent publication US6479435B1, “Diaryl ethers and processes for their preparation and herbicidal and desiccant compositions containing them” (ISK Americas Incorporated, priority 1997, dated 2002).

Assays:
Assay type in all cases: in vivo
[1] = test system: barnyardgrass (Echinochloa crusgalli, ECHCG); test: Post-emerge greenhouse herbicide test, phytotoxicity rating; details: Echinochloa crus-galli, post-emergence, 336 h, 14 days after application, scale 0-100; for pest or weed control at 63 g/ha: rate 63 g ai/ha; for pest or weed control at 500 g/ha: rate 500 g ai/ha
Outline: (§1)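 Plants at the 2-3 leaf stage, sown 8-21 days earlier, were track-sprayed post-emergence with compound in acetone plus 0.25% v/v non-ionic surfactant at 63-1000 g ai/ha (187 l/ha). Damage was rated at 14 days on a 0-100 scale (0 none, 100 all plants dead), for both crop injury and weed control.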

[2] = test system: green foxtail (Setaria viridis, SETVI); test: as above; details: Setaria viridis, post-emergence, 336 h, 14 days after application, scale 0-100; for pest or weed control at 63 g/ha: rate 63 g ai/ha; for pest or weed control at 500 g/ha: rate 500 g ai/ha
Outline: as §1

[3] = test system: ivyleaf morningglory (Ipomoea hederacea, IPOHE); test: as above; details: Ipomoea, post-emergence, 336 h, 14 days after application, scale 0-100; for pest or weed control at 63 g/ha: rate 63 g ai/ha; for pest or weed control at 500 g/ha: rate 500 g ai/ha
Outline: as §1

[4] = test system: sicklepod (Cassia obtusifolia, CASOB); test: as above; details: Senna obtusifolia, post-emergence, 336 h, 14 days after application, scale 0-100; for pest or weed control at 63 g/ha: rate 63 g ai/ha; for pest or weed control at 500 g/ha: rate 500 g ai/ha
Outline: as §1

[5] = test system: lambsquarters (Chenopodium album, CHEAL); test: as above; details: Chenopodium album, post-emergence, 336 h, 14 days after application, scale 0-100; for pest or weed control at 63 g/ha: rate 63 g ai/ha; for pest or weed control at 500 g/ha: rate 500 g ai/ha
Outline: as §1

[6] = test system: redroot pigweed (Amaranthus retroflexus, AMARE); test: as above; details: Amaranthus retroflexus, post-emergence, 336 h, 14 days after application, scale 0-100; for pest or weed control at 63 g/ha: rate 63 g ai/ha; for pest or weed control at 500 g/ha: rate 500 g ai/ha
Outline: as §1

[7] = test system: Johnsongrass (Sorghum halepense, SORHA); test: as above; details: Sorghum halepense, post-emergence, 336 h, 14 days after application, scale 0-100; for pest or weed control at 63 g/ha: rate 63 g ai/ha; for pest or weed control at 500 g/ha: rate 500 g ai/ha
Outline: as §1

[8] = test system: large crabgrass (Digitaria sanguinalis, DIGSA); test: as above; details: Digitaria sanguinalis, post-emergence, 336 h, 14 days after application, scale 0-100; for pest or weed control at 63 g/ha: rate 63 g ai/ha; for pest or weed control at 500 g/ha: rate 500 g ai/ha
Outline: as §1

[9] = test system: velvetleaf (Abutilon theophrasti, ABUTH); test: as above; details: Abutilon theophrasti, post-emergence, 336 h, 14 days after application, scale 0-100; for pest or weed control at 63 g/ha: rate 63 g ai/ha; for pest or weed control at 500 g/ha: rate 500 g ai/ha
Outline: as §1

[10] = test system: barnyardgrass (Echinochloa crusgalli, ECHCG); test: Pre-emerge greenhouse herbicide test, phytotoxicity rating; details: Echinochloa crus-galli, pre-emergence, 336 h, 14 days after application, rating scale 0-100; for pest or weed control at 125 g/ha: Rate 125 g al/ha; for pest or weed control at 500 g/ha: Rate 500 g al/ha
Outline: (§2)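 Seeds sown in sandy loam one day before track-sprayer application of acetone solutions at 125–1000 g ai/ha (187 l/ha), then surface-watered to incorporate and bottom-watered. Injury scored visually at 14 days on a 0–100 scale (0 no damage, 100 complete death).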

[11] = test system: green foxtail (Setaria viridis, SETVI); test: as above; details: Setaria viridis, pre-emergence, 336 h, 14 days after application, rating scale 0-100; for pest or weed control at 125 g/ha: Rate 125 g al/ha; for pest or weed control at 500 g/ha: Rate 500 g al/ha
Outline: as §2

[12] = test system: sicklepod (Cassia obtusifolia, CASOB); test: as above; details: Senna obtusifolia, pre-emergence, 336 h, 14 days after application, rating scale 0-100; for pest or weed control at 125 g/ha: Rate 125 g al/ha; for pest or weed control at 500 g/ha: Rate 500 g al/ha
Outline: as §2

[13] = test system: lambsquarters (Chenopodium album, CHEAL); test: as above; details: Chenopodium album, pre-emergence, 336 h, 14 days after application, rating scale 0-100; for pest or weed control at 125 g/ha: Rate 125 g al/ha; for pest or weed control at 500 g/ha: Rate 500 g al/ha
Outline: as §2

[14] = test system: redroot pigweed (Amaranthus retroflexus, AMARE); test: as above; details: Amaranthus retroflexus, pre-emergence, 336 h, 14 days after application, rating scale 0-100; for pest or weed control at 125 g/ha: Rate 125 g al/ha; for pest or weed control at 500 g/ha: Rate 500 g al/ha
Outline: as §2

[15] = test system: Johnsongrass (Sorghum halepense, SORHA); test: as above; details: Sorghum halepense, pre-emergence, 336 h, 14 days after application, rating scale 0-100; for pest or weed control at 125 g/ha: Rate 125 g al/ha; for pest or weed control at 500 g/ha: Rate 500 g al/ha
Outline: as §2

Nn1c(C(F)(F)F)cc(=O)n(-c2cc(Oc3ccc(Cl)cn3)c(Cl)cc2F)c1=O [Compound 9-3, 1-Amino-3-[4-chloro-2-fluoro-5-(5-chloro-2-pyridyloxy)phenyl]-6-trifluoromethyl-1,2,3,4-tetrahydropyrimidine-2,4-dione]
pest or weed control at 63 g/ha [1]: 0% | pest or weed control at 500 g/ha [1]: 90% | pest or weed control at 63 g/ha [2]: 20% | pest or weed control at 500 g/ha [2]: 95% | pest or weed control at 63 g/ha [3]: 100% | pest or weed control at 500 g/ha [3]: 100% | pest or weed control at 63 g/ha [4]: 20% | pest or weed control at 500 g/ha [4]: 95% | pest or weed control at 63 g/ha [5]: 95% | pest or weed control at 500 g/ha [5]: 100% | pest or weed control at 63 g/ha [6]: 100% | pest or weed control at 500 g/ha [6]: 100% | pest or weed control at 63 g/ha [7]: 10% | pest or weed control at 500 g/ha [7]: 90% | pest or weed control at 63 g/ha [8]: 30% | pest or weed control at 500 g/ha [8]: 95% | pest or weed control at 63 g/ha [9]: 100% | pest or weed control at 500 g/ha [9]: 100% | pest or weed control at 125 g/ha [10]: 30% | pest or weed control at 500 g/ha [10]: 99% | pest or weed control at 125 g/ha [11]: 100% | pest or weed control at 500 g/ha [11]: 100% | pest or weed control at 125 g/ha [12]: 0% | pest or weed control at 500 g/ha [12]: 70% | pest or weed control at 125 g/ha [13]: 100% | pest or weed control at 500 g/ha [13]: 100% | pest or weed control at 125 g/ha [14]: 100% | pest or weed control at 500 g/ha [14]: 100% | pest or weed control at 125 g/ha [15]: 70% | pest or weed control at 500 g/ha [15]: 99%

Nn1c(C(F)(F)F)cc(=O)n(-c2cc(Oc3cccc(Cl)n3)c(Cl)cc2F)c1=O [Compound 9-5, 1-Amino-3-[4-chloro-2-fluoro-5-(6-chloro-2-pyridyloxy)phenyl]-6-trifluoromethyl-1,2,3,4-tetrahydropyrimidine-2,4-dione]
pest or weed control at 63 g/ha [1]: 20% | pest or weed control at 500 g/ha [1]: 100% | pest or weed control at 63 g/ha [2]: 30% | pest or weed control at 500 g/ha [2]: 90% | pest or weed control at 63 g/ha [3]: 100% | pest or weed control at 500 g/ha [3]: 90% | pest or weed control at 63 g/ha [4]: 100% | pest or weed control at 500 g/ha [4]: 100% | pest or weed control at 63 g/ha [5]: 90% | pest or weed control at 500 g/ha [5]: 100% | pest or weed control at 63 g/ha [6]: 100% | pest or weed control at 500 g/ha [6]: 100% | pest or weed control at 63 g/ha [7]: 50% | pest or weed control at 500 g/ha [7]: 100% | pest or weed control at 63 g/ha [8]: 0% | pest or weed control at 500 g/ha [8]: 80% | pest or weed control at 63 g/ha [9]: 90% | pest or weed control at 500 g/ha [9]: 100% | pest or weed control at 125 g/ha [10]: 90% | pest or weed control at 500 g/ha [10]: 100% | pest or weed control at 125 g/ha [11]: 100% | pest or weed control at 500 g/ha [11]: 100% | pest or weed control at 125 g/ha [12]: 10% | pest or weed control at 500 g/ha [12]: 50% | pest or weed control at 125 g/ha [13]: 100% | pest or weed control at 500 g/ha [13]: 100% | pest or weed control at 125 g/ha [14]: 100% | pest or weed control at 500 g/ha [14]: 100% | pest or weed control at 125 g/ha [15]: 95% | pest or weed control at 500 g/ha [15]: 100%

Nn1c(C(F)(F)F)cc(=O)n(-c2cc(Oc3nc(F)c(F)cc3F)c(Cl)cc2F)c1=O [Compound 9-6, 1-Amino-3-[4-chloro-2-fluoro-5-(3,5,6-trifluoro-2-pyridyloxy)phenyl]-6-trifluoromethyl-1,2,3,4-tetrahydropyrimidine-2,4-dione]
pest or weed control at 63 g/ha [1]: 90% | pest or weed control at 500 g/ha [1]: 100% | pest or weed control at 63 g/ha [2]: 20% | pest or weed control at 500 g/ha [2]: 100% | pest or weed control at 63 g/ha [3]: 100% | pest or weed control at 500 g/ha [3]: 100% | pest or weed control at 63 g/ha [4]: 40% | pest or weed control at 500 g/ha [4]: 100% | pest or weed control at 63 g/ha [5]: 100% | pest or weed control at 500 g/ha [5]: 100% | pest or weed control at 63 g/ha [6]: 100% | pest or weed control at 500 g/ha [6]: 100% | pest or weed control at 63 g/ha [7]: 100% | pest or weed control at 500 g/ha [7]: 100% | pest or weed control at 63 g/ha [8]: 90% | pest or weed control at 500 g/ha [8]: 100% | pest or weed control at 63 g/ha [9]: 100% | pest or weed control at 500 g/ha [9]: 100% | pest or weed control at 125 g/ha [10]: 90% | pest or weed control at 500 g/ha [10]: 100% | pest or weed control at 125 g/ha [11]: 100% | pest or weed control at 500 g/ha [11]: 100% | pest or weed control at 125 g/ha [12]: 90% | pest or weed control at 500 g/ha [12]: 100% | pest or weed control at 125 g/ha [13]: 100% | pest or weed control at 500 g/ha [13]: 100% | pest or weed control at 125 g/ha [14]: 100% | pest or weed control at 500 g/ha [14]: 100% | pest or weed control at 125 g/ha [15]: 90% | pest or weed control at 500 g/ha [15]: 90%

Nn1c(C(F)(F)F)cc(=O)n(-c2cc(Oc3ncccc3C(F)(F)F)c(Cl)cc2F)c1=O [Compound 9-7, 1-Amino-3-[4-chloro-2-fluoro-5-(3-trifluoromethyl-2-pyridyloxy)phenyl]-6-trifluoromethyl-1,2,3,4-tetrahydropyrimidine-2,4-dione]
pest or weed control at 63 g/ha [1]: 60% | pest or weed control at 500 g/ha [1]: 70% | pest or weed control at 63 g/ha [2]: 40% | pest or weed control at 500 g/ha [2]: 70% | pest or weed control at 63 g/ha [3]: 100% | pest or weed control at 500 g/ha [3]: 100% | pest or weed control at 63 g/ha [4]: 90% | pest or weed control at 500 g/ha [4]: 90% | pest or weed control at 63 g/ha [5]: 100% | pest or weed control at 500 g/ha [5]: 100% | pest or weed control at 63 g/ha [6]: 100% | pest or weed control at 500 g/ha [6]: 100% | pest or weed control at 63 g/ha [7]: 80% | pest or weed control at 500 g/ha [7]: 90% | pest or weed control at 63 g/ha [8]: 10% | pest or weed control at 500 g/ha [8]: 30% | pest or weed control at 63 g/ha [9]: 100% | pest or weed control at 500 g/ha [9]: 100% | pest or weed control at 125 g/ha [10]: 90% | pest or weed control at 500 g/ha [10]: 100% | pest or weed control at 125 g/ha [11]: 100% | pest or weed control at 500 g/ha [11]: 100% | pest or weed control at 125 g/ha [12]: 40% | pest or weed control at 500 g/ha [12]: 100% | pest or weed control at 125 g/ha [13]: 100% | pest or weed control at 500 g/ha [13]: 100% | pest or weed control at 125 g/ha [14]: 100% | pest or weed control at 500 g/ha [14]: 100% | pest or weed control at 125 g/ha [15]: 90% | pest or weed control at 500 g/ha [15]: 100%
